Laboratory results as given in patent EP0155104A2, “Free analyte assay” (priority 1984, dated 1985).
Values joined by “and” are separate entries in the source; they are usually repeats but may differ in a detail not shown here. Equal values may be shown once. Read-outs that look alike come from different tables or passages of the source.

Tests used:
[1] = test system: serum proteins; assay: Amerlex free T4 radioimmunoassay: Bo value with added blocking agent; type: binding
[2] = test system: natural protein binders; details: in body fluids; cited from earlier work
[3] = target: T1, thyroxine binding globulin (TBG) (Homo sapiens, UniProt P05543); details: in body fluids; cited from earlier work
T1 sequence (P05543 21-415): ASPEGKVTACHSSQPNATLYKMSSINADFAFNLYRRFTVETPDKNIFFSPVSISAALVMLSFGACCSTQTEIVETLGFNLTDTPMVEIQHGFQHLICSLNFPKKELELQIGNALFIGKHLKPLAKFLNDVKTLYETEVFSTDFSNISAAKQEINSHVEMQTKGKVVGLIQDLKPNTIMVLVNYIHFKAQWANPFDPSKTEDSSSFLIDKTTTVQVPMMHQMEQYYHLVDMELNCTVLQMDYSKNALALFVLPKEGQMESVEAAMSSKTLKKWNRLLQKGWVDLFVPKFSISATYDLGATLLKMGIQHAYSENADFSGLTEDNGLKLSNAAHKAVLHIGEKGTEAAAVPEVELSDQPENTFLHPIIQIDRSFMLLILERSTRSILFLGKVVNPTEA

[4] = target: albumin (Alb) (Homo sapiens, UniProt P02768); details: cited from earlier work
Chain of albumin (Alb) (P02768 25-609): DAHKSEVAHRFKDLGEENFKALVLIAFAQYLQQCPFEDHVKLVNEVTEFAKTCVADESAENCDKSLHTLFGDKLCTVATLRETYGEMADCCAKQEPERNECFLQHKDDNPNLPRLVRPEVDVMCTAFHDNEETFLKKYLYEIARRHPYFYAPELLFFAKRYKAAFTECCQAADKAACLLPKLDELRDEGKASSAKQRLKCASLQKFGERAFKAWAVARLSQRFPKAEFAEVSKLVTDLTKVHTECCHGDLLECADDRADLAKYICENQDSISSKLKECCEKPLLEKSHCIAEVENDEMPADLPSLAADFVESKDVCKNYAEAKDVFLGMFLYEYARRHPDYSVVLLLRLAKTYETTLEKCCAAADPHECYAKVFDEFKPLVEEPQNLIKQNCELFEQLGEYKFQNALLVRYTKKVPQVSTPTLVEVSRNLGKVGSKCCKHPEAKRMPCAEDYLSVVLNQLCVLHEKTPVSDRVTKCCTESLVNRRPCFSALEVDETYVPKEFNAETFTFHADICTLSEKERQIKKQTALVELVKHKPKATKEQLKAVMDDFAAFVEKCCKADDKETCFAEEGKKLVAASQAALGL

[5] = target: thyroxine binding prealbumin (TBPA) (Homo sapiens, UniProt P02766); details: in body fluids; cited from earlier work
[6] = blocking agent 10^-3 M, no addition: 67.7
[7] = blocking agent 10^-2 M, no addition: 67.7

## O=[N+]([O-])c1ccc(O)c([N+](=O)[O-])c1 [2,4-dinitrophenol]
[1]; [6]
  Bo (% tracer bound): 60.0%

## O=C(O)c1c(O)cccc1O [Gamma resorcylate, sodium gamma-resorcylate (2,6-dihydroxybenzoate)]
[1]; [7]
  Bo (% tracer bound): 51.6%
[1]; [6]
  Bo (% tracer bound): 70.3%

## O=C(O)c1cc(O)ccc1O [Gentisate, sodium gentisate (2,5-dihydroxybenzoate)]
[1]; [7]
  Bo (% tracer bound): 71.8%
[1]; [6]
  Bo (% tracer bound): 70.5%

## O=C(O)c1cc(S(=O)(=O)O)ccc1O [SSA, 5-sulphosalicylic acid]
[1]; SSA 1x10^-2 M, no SSA: 65
  Bo (% tracer bound): 82.5%
[1]; SSA 1x10^-3 M, no SSA: 65
  Bo (% tracer bound): 74%
[1]; SSA 2x10^-2 M, T4-analogue tracer bound to antiserum at zero T4, no SSA: 65
  Bo (% tracer bound): 82%
[1]; SSA 2x10^-3 M, no SSA: 65
  Bo (% tracer bound): 80%
[1]; SSA 2x10^-4 M, no SSA: 65
  Bo (% tracer bound): 68%
[1]; SSA 5x10^-3 M, no SSA: 65
  Bo (% tracer bound): 78%
[1]; SSA 5x10^-4 M, no SSA: 65
  Bo (% tracer bound): 72%
[1]; SSA 5x10^-5 M, no SSA: 65
  Bo (% tracer bound): 66%

## NC(=O)c1ccccc1O [Salicylamide, salicylamide]
[1]; [7]
  Bo (% tracer bound): 43.0%
[1]; [6]
  Bo (% tracer bound): 67.5%

## O=C([O-])c1ccccc1O.[Na+] [Salicylate, sodium salicylate]
[1]
  Bo (% tracer bound): 72.6% and 69.5%

## N[C@@H](Cc1cc(I)c(Oc2ccc(O)c(I)c2)c(I)c1)C(=O)O [T3, Tri-iodothyronine]
[2]
  in free form: 0.3%
[3]
  share of the bound fraction bound to TBG: 60%
[4]
  share of the bound fraction bound to Alb: 25%
[5]
  share of the bound fraction bound to TBPA: 15%

## N[C@@H](Cc1cc(I)c(Oc2cc(I)c(O)c(I)c2)c(I)c1)C(=O)O [T4, Thyroxine]
[2]
  bound to natural protein binders: 99.97%
[3]
  share of the bound fraction bound to TBG: 70%
[5]
  share of the bound fraction bound to TBPA: 20%
